Key:
[1] = Solubility constant in aqueous solution (Kps)
Subtilis bacteria = conditions: Cu^+ ions; cited from earlier work
Staphylococcus aureus = conditions: Cu^+ ions; cited from earlier work

Compound | Group (classification according to Kps value) [1] | MIC value for copper (Subtilis bacteria) [µM] | MIC value for copper (Staphylococcus aureus) [µM]
[OH][Cu][OH] [Copper (II)Hydroxide] | C (Group C: salts with a Kps within a range that goes from a value greater than or equal to 1*10^−20 until a value equal to or less than 9*10^−16.) |  | 
Copper (I)Hydroxide | B (Group B: salts with a Kps within a range that goes from a value greater than 9*10^−16 until a value equal to or less than 9*10^−11.) |  | 
Copper(I) Oxide | B (Group B: salts with a Kps within a range that goes from a value greater than 9*10^−16 until a value equal to or less than 9*10^−11.) |  | 
Copper(I)Phthalocyanine | B (Group B: salts with a Kps within a range that goes from a value greater than 9*10^−16 until a value equal to or less than 9*10^−11.) |  | 
[Cu] [copper] |  | 0.04 | 0.35

— patent US9808014B2, “Active-powder biocidal composition comprising at least one copper salt and at least one zinc salt and the method for the production thereof” (Textil Copper Andino S.A. [CL/CL], priority 2011, dated 2017)
